From patent US8846746B2, “Pyrazole compound and pharmaceutical use thereof” (Japan Tobacco Inc., priority 2011, dated 2014)

Target: human SGLT1 (Homo sapiens (Human), UniProt P13866)
Experiment: SGLT1 inhibitory activity: 14C-AMG uptake into CHO-K1 cell line stably expressing human SGLT1
Format: cell-based
Conditions: for IC50: 14C-AMG uptake; for inhibition at 0.1 µM: CHO-K1, at 0.1 uM
Procedure, shortened: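 CHO-K1 cells stably expressing human SGLT1 were pre-incubated 20 min in Na(−) buffer (pH 7.4). Test compound in Na(+) buffer with BSA was added with ¹⁴C-AMG (8 kBq) plus unlabelled AMG (2 mM in the added solution) for 1 h at 37 °C.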

[1] = CHO-K1 cells expressing human SGLT1
[2] = CHO-K1 cells stably expressing human SGLT1

Sequence of human SGLT1 (P13866 whole entry): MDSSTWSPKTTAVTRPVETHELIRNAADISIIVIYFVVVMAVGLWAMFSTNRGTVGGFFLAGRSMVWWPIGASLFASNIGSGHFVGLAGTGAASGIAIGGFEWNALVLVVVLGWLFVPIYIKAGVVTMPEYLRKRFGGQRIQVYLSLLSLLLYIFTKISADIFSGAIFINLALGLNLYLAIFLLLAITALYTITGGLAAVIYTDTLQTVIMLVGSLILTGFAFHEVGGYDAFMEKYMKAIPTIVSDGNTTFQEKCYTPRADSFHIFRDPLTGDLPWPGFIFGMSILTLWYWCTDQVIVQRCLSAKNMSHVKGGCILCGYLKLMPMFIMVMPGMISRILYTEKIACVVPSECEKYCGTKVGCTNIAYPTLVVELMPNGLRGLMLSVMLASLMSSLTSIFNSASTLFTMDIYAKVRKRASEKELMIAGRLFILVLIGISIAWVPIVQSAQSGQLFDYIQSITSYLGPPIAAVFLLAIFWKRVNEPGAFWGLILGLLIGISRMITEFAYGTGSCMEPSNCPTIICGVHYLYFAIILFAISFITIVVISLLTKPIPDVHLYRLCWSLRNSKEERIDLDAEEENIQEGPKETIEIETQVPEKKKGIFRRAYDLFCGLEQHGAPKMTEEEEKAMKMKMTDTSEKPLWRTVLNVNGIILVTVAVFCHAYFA

IC50 [1] [nM] | IC50 [2] [nM] | Compound | further results
19 |  | CC(F)(F)c1cccc(-c2cc(NC(=O)[C@H]3CNC(=O)C3)nn2-c2ccc(Cl)cc2)c1 [Example 162] | 
23 |  | C[C@H]1C(=O)NC[C@@H]1C(=O)Nc1cc(-c2cccc(OC(F)(F)F)c2)n(C2CCOCC2)n1 [Example 188] | 
5500 |  | O=C1CCC(C(=O)Nc2cc(-c3ccccc3)n(-c3ccccc3)n2)CN1 (racemic) [Example 10] | 
 | 19 | O=C1C[C@H](C(=O)Nc2cc(-c3cccc(OC(F)(F)F)c3)n(-c3cccc(OCc4ccccc4)c3)n2)CN1 [Example 436] | 
 | 12 | COc1ccc(F)c(-n2nc(NC(=O)[C@@H]3CNC(=O)C3)cc2-c2cccc(OC(F)(F)F)c2)c1 [Example 515] | 
 | 10.9 | CCCc1cccc(-c2cc(NC(=O)[C@@H]3CNC(=O)C3)nn2-c2cccc(OC3CCC3)c2)c1 [Example 412] | 
 | 12 | CC(C)Oc1cccc(-n2nc(NC(=O)[C@@H]3CNC(=O)C3)cc2-c2cccc(COCC(F)(F)F)c2)c1F [Example 482] | 
10 |  | O=C1C[C@@H](C(=O)Nc2cc(-c3cccc(OCC(F)(F)F)c3)n(-c3ccccc3)n2)CN1 [Example 148] | 
 | 23 | O=C1C[C@H](C(=O)Nc2cc(-c3cccc(OCC(F)(F)F)c3)n(-c3ccccc3)n2)CN1 [Example 260] | 
 | 7.6 | CCCc1cccc(-c2cc(NC(=O)[C@@H]3CNC(=O)C3)nn2-c2cccc(OCCCSC)c2)c1 [Example 490] | 
4.6 |  | CCCc1cccc(-c2cc(NC(=O)C3CNC(=O)C3)nn2-c2ccccc2)c1 (racemic) [Example 11] | 
 | 23 | COCCOc1cccc(-n2nc(NC(=O)[C@@H]3CNC(=O)C3)cc2-c2cccc(CO[C@H](C)C(F)(F)F)c2)c1F [Example 487] | 
1600 |  | O=C1CC(C(=O)Nc2cc(-c3ccccc3)n(-c3ccccc3)n2)CN1 (racemic) [Example 9] | 
11 |  | CCCc1cccc(-c2cc(NC(=O)[C@H]3CNC(=O)C3)nn2CCC(C)C)c1 [Example 135] | 
5.5 |  | CCC(F)(F)c1cccc(-c2cc(NC(=O)[C@H]3CNC(=O)C3)nn2-c2ccc(Cl)cc2)c1 [Example 141] | 
110 |  | CCCc1cccc(-c2cc(NC(=O)[C@@H]3CNC(=O)C3)nn2C(F)(F)F)c1 [Example 87] | 
 | 13 | CCCO[C@H](C)c1cccc(-c2cc(NC(=O)[C@@H]3CNC(=O)C3)nn2-c2ccccc2)c1 [Example 395] | 
15 |  | CCCc1cccc(-c2cc(NC(=O)[C@@H]3CNC(=O)C3)nn2-c2ccc(F)cc2)c1 [Example 35] | 
8.3 |  | Cc1cc(F)ccc1-n1nc(NC(=O)[C@H]2CNC(=O)C2)cc1-c1cccc(OC(F)(F)F)c1 [Example 195] | 
55 |  | CCC(F)(F)c1cccc(-c2cc(NC(=O)[C@H]3CNC(=O)[C@@H]3C)nn2CCOC(C)C)c1 [Example 176] | 
 | 38 | O=C1C[C@H](C(=O)Nc2cc(-c3cccc(COCC(F)(F)F)c3)n(-c3cccc(OC4COC4)c3)n2)CN1 [Example 509] | 
 | 17 | CCCc1cccc(-c2cc(NC(=O)[C@@H]3CNC(=O)C3)nn2-c2ccc(C(F)(F)F)cc2)c1 [Example 402] | 

The next lines start with the molecule.

Compound | IC50 [1] [nM] | IC50 [2] [nM] | further results
C[C@H]1C(=O)NC[C@@H]1C(=O)Nc1cc(-c2cccc(OCC(F)(F)F)c2)n(-c2cccc(F)c2)n1 [Example 222] | 4.1 |  | 
O=C1C[C@H](C(=O)Nc2cc(-c3cccc(CN4CCCC4)c3)n(-c3ccccc3)n2)CN1 [Example 428] |  |  | inhibition at 0.1 µM: 31%
Cc1ccccc1-n1nc(NC(=O)[C@H]2CNC(=O)[C@@H]2C)cc1-c1cccc(OC(F)(F)F)c1 [Example 223] | 2.3 |  | 
CC(OCc1cccc(-c2cc(NC(=O)[C@H]3CNC(=O)C3)nn2-c2ccccc2)c1)(C(F)(F)F)C(F)(F)F [Example 364] |  | 8.3 | 
CCC(F)(F)c1cccc(-c2cc(NC(=O)[C@H]3CNC(=O)C3)nn2-c2ccccc2C)c1 [Example 144] | 1.3 |  | 
C[C@@H]1C[C@@H](n2nc(NC(=O)[C@H]3CNC(=O)[C@@H]3C)cc2-c2cccc(OC(F)(F)F)c2)C[C@H](C)O1 [Example 220] |  |  | inhibition at 0.1 µM: 16%
CC(C)NC(=O)c1cccc(-c2cc(NC(=O)[C@@H]3CNC(=O)C3)nn2-c2ccccc2)c1 [Example 431] |  |  | inhibition at 0.1 µM: 21%
CCCc1cccc(-c2cc(NC(=O)[C@@H]3CNC(=O)C3)nn2CCC2CCCCC2)c1 [Example 114] | 27 |  | 
CCOc1cc(F)cc(-n2nc(NC(=O)[C@@H]3CNC(=O)C3)cc2-c2cccc(COCC(F)(F)F)c2)c1 [Example 528] |  | 3.6 | 
CCCc1cccc(-c2cc(NC(=O)[C@H]3CNC(=O)C3)nn2-c2ccc(Cl)cc2)c1 [Example 36] | 9.4 |  | 
CCCc1cccc(-c2cc(NC(=O)[C@@H]3CNC(=O)C3)nn2-c2ccc(F)c(OCC)c2)c1 [Example 390] |  | 9.4 | 
C[C@@H](OCc1cccc(-c2cc(NC(=O)[C@@H]3CNC(=O)C3)nn2-c2ccc(F)cc2)c1)C(F)(F)F [Example 238, (S)-5-oxopyrrolidine-3-carboxylic acid{1-(4-fluorophenyl)-5-[3-((R)-2,2,2-trifluoro-1-methylethoxymethyl)phenyl]-1H-pyrazol-3-yl}amide] |  | 7.9 | 
CCCc1cccc(-c2cc(NC(=O)[C@H]3CNC(=O)C3)nn2CCC(C)(C)C)c1 [Example 134] | 6.8 |  | 
CCCc1cccc(-c2cc(NC(=O)[C@@H]3CNC(=O)C3)nn2-c2cccc(OC(C)(C)C)c2)c1 [Example 435] |  | 3.45 | 
CCS(=O)(=O)Cc1cccc(-c2cc(NC(=O)[C@@H]3CNC(=O)C3)nn2-c2ccccc2)c1 [Example 541] |  |  | inhibition at 0.1 µM: 24%
C[C@@H](OCc1cc(-c2cc(NC(=O)[C@@H]3CNC(=O)C3)nn2-c2ccccc2)ccc1F)C(F)(F)F [Example 557] |  |  | inhibition at 0.1 µM: 48%
O=C1C[C@@H](C(=O)Nc2cc(-c3cccc(OC(F)(F)F)c3)n(-c3ccc(Cl)c(F)c3)n2)CN1 [Example 174] |  |  | inhibition at 1 µM (CHO-K1, at 1 uM): 9%
CCCc1cccc(-c2cc(NC(=O)C3(C)CNC(=O)C3)nn2-c2ccccc2)c1 (racemic) [Example 21] | 680 |  | 
CC(C)(C)C(=O)c1cccc(-c2cc(NC(=O)[C@@H]3CNC(=O)C3)nn2-c2ccccc2)c1 [Example 356] |  | 11 | 
CCOc1cc(F)cc(-n2nc(NC(=O)[C@@H]3CNC(=O)C3)cc2-c2cccc(OC(F)(F)F)c2)c1 [Example 525] |  | 18 | 
CCCc1cccc(-c2cc(NC(=O)[C@@H]3CNC(=O)C3)nn2CC(F)(F)F)c1 [Example 67] |  |  | inhibition at 0.1 µM: 29%
O=C1C[C@@H](C(=O)Nc2cc(C3CCCCC3)n(-c3ccccc3)n2)CN1 [Example 40] | 650 |  | 

Compound | IC50 [1] [nM] | IC50 [2] [nM] | further results
CCCc1cccc(-c2cc(NC(=O)C34CNC(=O)C3C4)nn2-c2ccccc2)c1 (stereo not drawn) [Example 249, 4-oxo-3-azabicyclo[3.1.0]hexane-1-carboxylic acid[1-phenyl-5-(3-propylphenyl)-1H-pyrazol-3-yl]amide] |  | 39 | 
CCCOc1cc(-n2nc(NC(=O)[C@@H]3CNC(=O)C3)cc2-c2cccc(COCC(F)(F)F)c2)ccc1F [Example 419] |  | 4.75 | 
C[C@@H](OCc1cccc(-c2cc(NC(=O)[C@@H]3CNC(=O)C3)nn2C2CCOCC2)c1)C(F)(F)F [Example 582] |  |  | inhibition at 0.1 µM: 47%
COc1cc(F)cc(-n2nc(NC(=O)[C@@H]3CNC(=O)C3)cc2-c2cccc(OC(F)(F)F)c2)c1 [Example 524] |  | 27 | 
O=C1C[C@@H](C(=O)Nc2cc(-c3cccc(C(F)(F)F)c3)n(-c3ccccc3F)n2)CN1 [Example 228] | 8.6 |  | 
CCOc1ccc(F)c(-n2nc(NC(=O)[C@@H]3CNC(=O)C3)cc2-c2cccc(CO[C@H](C)C(F)(F)F)c2)c1 [Example 463] |  | 1.1 | 
CCOc1cccc(-n2nc(NC(=O)[C@@H]3CNC(=O)C3)cc2-c2cccc(COCC(F)(F)F)c2)c1F [Example 481] |  | 8.7 | 
CCCc1cccc(-c2cc(NC(=O)[C@H]3CNC(=O)C3)nn2-c2ccc(C)cc2)c1 [Example 48] | 3.5 |  | 
O=C1C[C@@H](C(=O)Nc2cc(-c3cccc(C(F)(F)F)c3)n(-c3ccccc3)n2)CN1 [Example 27] | 23 |  | 
CCCc1cccc(-c2cc(NC(=O)[C@@H]3CNC(=O)C3)nn2-c2ccccc2OC)c1 [Example 376] |  | 31 | 
O=C1C[C@H](C(=O)Nc2cc(-c3cc(F)cc(COCC(F)(F)F)c3)n(-c3ccccc3)n2)CN1 [Example 488] |  | 18 | 
COc1cccc(-n2nc(NC(=O)[C@@H]3CNC(=O)C3)cc2-c2cccc(OC(F)(F)F)c2)c1F [Example 476] |  | 21 | 
CCCc1cccc(-c2cc(NC(=O)[C@@H]3CNC(=O)C3)nn2-c2cccc(CC)c2)c1 [Example 393] |  | 5.25 | 
O=C1C[C@H](C(=O)Nc2cc(-c3cccc(OC(F)(F)F)c3)n(-c3cccc(Cl)c3)n2)CN1 [Example 504] |  | 23 | 
CC(C)Oc1cccc(-c2cc(NC(=O)[C@H]3CNC(=O)C3)nn2-c2ccccc2)c1 [Example 321] |  | 22 | 
O=C1C[C@H](C(=O)Nc2cc(-c3cccc(COCC(F)(F)F)c3)n(-c3cccc(Cl)c3)n2)CN1 [Example 505] |  | 11 | 
C[C@@H](OCc1cc(F)cc(-c2cc(NC(=O)[C@@H]3CNC(=O)C3)nn2-c2ccc(Cl)cc2)c1)C(F)(F)F [Example 236, (S)-5-oxopyrrolidine-3-carboxylic acid{1-(4-chlorophenyl)-5-[3-fluoro-5-((R)-2,2,2-trifluoro-1-methylethoxymethyl)phenyl]-1H-pyrazol-3-yl}amide] |  | 5.35 | 
O=C1C[C@@H](C(=O)Nc2cc(-c3cccc(OC(F)(F)F)c3)n(C3CCOCC3)n2)CN1 [Example 187] | 42 |  | 
CCC(F)(F)c1cccc(-c2cc(NC(=O)[C@H]3CNC(=O)C3)nn2-c2ccccc2)c1 [Example 72] | 4.7 |  | 
CCCc1cccc(-c2cc(NC(=O)C3CNC(=O)CO3)nn2-c2ccccc2)c1 (stereo not drawn) [Example 277] |  |  | human SGLT1 % Inhibition (at 0.1 uM): 48%
CCCc1cccc(-c2cc(NC(=O)C3CNC(=O)C34CC4)nn2-c2ccccc2)c1 (single isomer, unassigned) [Example 360] |  | 1.5 | 
O=C1C[C@H](C(=O)Nc2cc(-c3cc(F)cc(COCC(F)(F)F)c3)n(-c3ccccc3F)n2)CN1 [Example 519] |  | 13 | 
